Assay results from patent publication US8193147B2, “Use of copolymer 1 for treatment of muscular dystrophy” (Hadasit Medical Research Services & Development Ltd., priority 2007, dated 2012).

Columns and labels:
Assay type in all cases: in vivo, mouse
dy^2j mice = experiment: Muscle biopsy histology (Hematoxylin-Eosin), muscular fibrosis; conditions: dy^2j mice treated with GA for 12 weeks vs untreated; biopsies in week 17; FIG. 7
Protocol: Tissue analysis. […]
Muscle biopsies. Muscle biopsies were obtained from the hind limbs and were tested for:
1. Muscle histology hematoxylin and eosin stain (H&E) and Gommori trichrome stains

[1] = system: HO (homozygote) dy^2j mice; experiment: Grip strength of hind and fore limbs (Grip Strength Meter) in GA-treated dy2J mice; conditions: for hind limbs strength (muscle grip strength per body weight): between week 7 and week 19, p=0.0017, FIG. 1A
Protocol: (§1) Population: Twenty C57BL old mice were randomly divided into 4 groups (5 in each group):
1. WT mice—treated saline 100 μl/IP
2. WT mice—treated with 200 μg GA/IP
3. HO mice—treated Saline 100 μl/IP
4. HO mice—treated with 200 μg GA/IP
(§2) At 5 weeks of age WT and dy^2J animals were randomly divided to the treated and control groups. The animals were treated three times a week for 13 weeks.
Measurement of muscle strength (blind measurement). Once a week weight gain and total peak force (in Gram force/g bodyweight) were determined using electronic Grip Strength Meter, Columbus Instruments (Columbus, Ohio). Muscle strength measurements of both fore and hind limbs were performed according to Connolly A. M. et al., 2001. Mice were brought to the testing room and allowed to acclimatize for 10 minutes before the test begins. Five measurements (fore and hind limbs) were taken from each animal. The three highest measurements for each animal were averaged to give the strength score. Between the fore and hind measurements the mice were allowed to rest for 10 minutes. All measurements were performed by the same person.

[2] = system: WT (wild type) C57BL mice; experiment: Motion analysis by video-recording (EthoVision), WT mice; conditions: WT GA vs WT saline
Protocol: as §1, §2
(§3) Motion analysis by video-recording. At the end of the experiment (19 week of age) animal mobility and well-being were video recorded for 10 minutes sessions. The video films were analyzed using the EthoVision system (NBT-New Biotechnology, Jerusalem, Israel, video tracking system recording of activity and movement). Quantitative parameters of mobility of the animals including total distance, maximum distance in 0.2 second, average and peak velocity were calculated.

[3] = system: HO (homozygote) dy^2j mice; experiment: Motion analysis by video-recording (EthoVision), HO dy2J mice
Protocol: as §1, §2, §3

WT and dy^2J mice = experiment: Observation of side effects during treatment; conditions: treated group; 200 μg GA IP three times a week for 13 weeks
Protocol: as §2
No animal had paralysis with inability to reach food or water or dramatic weight loss (more than 10% weight loss between two weightings or 20% or more than its initial weight) or any other severe stress signs, that would necessitate withdrawal of the animal from the experiment.

glatiramer acetate [GA]
muscular fibrosis in muscle biopsies (dy^2j mice): significantly reduced muscular fibrosis | fore limbs strength (muscle grip strength per body weight) ([1]; GA 200 μg IP three times a week, GA-treated HO vs untreated HO, p=0.13, FIG. 1B): only minimal effect | hind limbs strength (muscle grip strength per body weight) ([1]; GA 200 μg IP three times a week, GA-treated HO vs untreated HO): Significant increase | hind limbs strength (muscle grip strength per body weight) ([1]; GA 200 μg IP three times a week, GA-treated HO vs untreated HO, listed as Cop 1): improved significantly | percentage of hind limbs strength, end of the experiment ([1]; HO treated mice, age 19 weeks, 100% = WT saline group at age seven weeks, FIG. 2): 95.26% | percentage of hind limbs strength, initial ([1]; HO treated mice, week 7, 100% = WT saline group at age seven weeks, FIG. 2): 62.74% | hind limbs muscle strength compared with wild type mice ([1]; treated dy^2j mice, at the end of the experiment, IP injection): as strong as the wild type mice | peak velocity in 0.2 sec period ([2]; p=0.38, FIG. 4): not significantly different | maximal distance in 0.2 sec period ([2]; p=0.39, FIG. 6): not significantly different | total ten minutes average velocity ([2]; p=0.51, FIG. 3): not significantly different | total 10-minutes average distance ([2]; p=0.51, FIG. 5): not significantly different | maximal distance in 0.2 sec period ([3]; HO GA treated vs untreated, p=0.016, FIG. 6): significantly longer | total 10-minutes average distance ([3]; HO GA treated vs untreated, p=0.052, FIG. 5): significantly longer | total ten minutes average velocity ([3]; HO GA-treated (n=5) vs untreated (n=4), p=0.051, FIG. 3): significantly faster | peak velocity in 0.2 sec period ([3]; HO GA-treated vs HO untreated, p=0.017, FIG. 4): significantly faster | mobility ([3]; treated dy^2j mice vs untreated dy^2j mice): improved significantly | mobility compared with wild type mice ([3]; treated dy^2j mice, at the end of the experiment): undistinguishable from the mobility of the wild type mice | side effects (WT and dy^2J mice): No other side effects were noted
